Where “and” joins values, the source holds several entries; their conditions need not be identical. Equal entries are not always repeated. ± gives the expanded uncertainty stated by the source.
Tests used:
[1] = molar enthalpy of vaporization or sublimation; conditions: 298.15 K; Crystal; Calvet microcalorimetry
[2] = Crystal, Calculated from knudsen effusion weight loss

| molar enthalpy [1] | Structure (SMILES) | vapor or sublimation pressure ([2]; 349.27 K) | vapor or sublimation pressure ([2]; 351.21 K) | vapor or sublimation pressure ([2]; 353.12 K) | vapor or sublimation pressure ([2]; 355.13 K) | vapor or sublimation pressure ([2]; 357.21 K) | vapor or sublimation pressure ([2]; 359.26 K) | vapor or sublimation pressure ([2]; 361.26 K) | vapor or sublimation pressure ([2]; 363.2 K) | vapor or sublimation pressure ([2]; 365.12 K) | vapor or sublimation pressure ([2]; 359.27 K) | vapor or sublimation pressure ([2]; 361.19 K) | vapor or sublimation pressure ([2]; 363.12 K) | vapor or sublimation pressure ([2]; 365.29 K) | vapor or sublimation pressure ([2]; 367.2 K) | vapor or sublimation pressure ([2]; 369.12 K) | vapor or sublimation pressure ([2]; 371.29 K) | vapor or sublimation pressure ([2]; 373.18 K) | vapor or sublimation pressure ([2]; 375.1 K) |
| --- | --- | --- | --- | --- | --- | --- | --- | --- | --- | --- | --- | --- | --- | --- | --- | --- | --- | --- | --- |
| 35.2 ± 1.86 kcal/mol | O=C(c1cccc([N+](=O)[O-])c1)c1cccc([N+](=O)[O-])c1 [3,3'-dinitrobenzophenone] |  |  |  |  |  |  |  |  |  |  |  |  |  |  |  |  |  |  |
| 29.5 ± 1.15 kcal/mol | O=C(c1ccccc1)c1cccc([N+](=O)[O-])c1 [3-nitrobenzophenone] | 0.00016 ± 8e-06 kPa and 0.000161 ± 8e-06 kPa and 0.000162 ± 8e-06 kPa | 0.000194 ± 1e-05 kPa and 0.000198 ± 1e-05 kPa | 0.000248 ± 1.2e-05 kPa and 0.000245 ± 1.2e-05 kPa and 0.000244 ± 1.2e-05 kPa | 0.000315 ± 1.6e-05 kPa and 0.000308 ± 1.5e-05 kPa | 0.000399 ± 2e-05 kPa and 0.000396 ± 2e-05 kPa and 0.000395 ± 2e-05 kPa | 0.000506 ± 2.5e-05 kPa and 0.000508 ± 2.5e-05 kPa | 0.000613 ± 3.1e-05 kPa and 0.00061 ± 3.1e-05 kPa and 0.000614 ± 3.1e-05 kPa | 0.000758 ± 3.8e-05 kPa and 0.000749 ± 3.8e-05 kPa and 0.000771 ± 3.9e-05 kPa | 0.000936 ± 4.7e-05 kPa and 0.000935 ± 4.7e-05 kPa and 0.000946 ± 4.7e-05 kPa |  |  |  |  |  |  |  |  |  |
| 29.2 ± 1.29 kcal/mol | O=C(c1ccccc1)c1ccc([N+](=O)[O-])cc1 [4-nitrobenzophenone] |  |  |  |  |  |  |  |  |  | 0.00018 ± 9e-06 kPa and 0.000177 ± 9e-06 kPa and 0.000174 ± 9e-06 kPa | 0.000215 ± 1.1e-05 kPa and 0.00021 ± 1.1e-05 kPa and 0.000214 ± 1.1e-05 kPa | 0.000269 ± 1.3e-05 kPa and 0.000265 ± 1.3e-05 kPa and 0.000259 ± 1.3e-05 kPa | 0.000344 ± 1.7e-05 kPa and 0.000342 ± 1.7e-05 kPa | 0.000422 ± 2.1e-05 kPa and 0.00042 ± 2.1e-05 kPa and 0.000427 ± 2.1e-05 kPa | 0.000512 ± 2.6e-05 kPa and 0.000509 ± 2.5e-05 kPa and 0.000523 ± 2.6e-05 kPa | 0.000652 ± 3.3e-05 kPa and 0.000645 ± 3.2e-05 kPa and 0.000657 ± 3.3e-05 kPa | 0.000767 ± 3.8e-05 kPa and 0.000769 ± 3.8e-05 kPa and 0.000791 ± 4e-05 kPa | 0.000955 ± 4.8e-05 kPa and 0.000941 ± 4.7e-05 kPa and 0.00096 ± 4.8e-05 kPa |
